Results reported in article PMC7933434, “Entropy-driven binding of gut bacterial β-glucuronidase inhibitors ameliorates irinotecan-induced toxicity” (Communications Biology, 2021).
Where “and” joins values, the source holds several entries; their conditions need not be identical. Equal values may be shown once. Read-outs that look alike come from different tables or passages of the source.

Key:
HsGUS (human GUS) = biological target: T1, HsGUS (human GUS) (Homo sapiens, UniProt P08236); assay: GUS inhibition assay, hydrolysis of 4-methylumbelliferyl-β-glucuronide, HsGUS; format: biochemical; design: GUS activity (hydrolysis rate of MUG): unit not given here
T1 construct: HsGUS was prepared as described[37]; made in house
T1 sequence (P08236 23-651): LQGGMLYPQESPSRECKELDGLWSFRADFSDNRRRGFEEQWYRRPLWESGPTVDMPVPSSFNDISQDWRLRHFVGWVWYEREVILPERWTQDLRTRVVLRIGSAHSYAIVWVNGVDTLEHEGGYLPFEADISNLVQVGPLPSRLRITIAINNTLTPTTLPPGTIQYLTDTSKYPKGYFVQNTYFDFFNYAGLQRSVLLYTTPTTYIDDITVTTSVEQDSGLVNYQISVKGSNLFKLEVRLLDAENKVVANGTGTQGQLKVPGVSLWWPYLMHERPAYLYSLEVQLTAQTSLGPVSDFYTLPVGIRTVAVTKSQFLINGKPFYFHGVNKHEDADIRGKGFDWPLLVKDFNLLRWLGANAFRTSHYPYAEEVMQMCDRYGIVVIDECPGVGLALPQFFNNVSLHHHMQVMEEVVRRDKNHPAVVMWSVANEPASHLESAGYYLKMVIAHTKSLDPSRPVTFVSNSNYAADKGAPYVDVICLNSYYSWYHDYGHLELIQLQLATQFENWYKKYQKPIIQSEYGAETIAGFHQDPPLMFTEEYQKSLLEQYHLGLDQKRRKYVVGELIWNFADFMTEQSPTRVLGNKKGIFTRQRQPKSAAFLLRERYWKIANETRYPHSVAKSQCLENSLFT

[1] = biological target: EcGUS (Escherichia coli GUS) (Escherichia coli, UniProt P05804); assay: biochemical
[2] = biological target: BdGUS (Bifidobacterium dentium GUS) (Bifidobacterium dentium, UniProt D2Q7B1); assay: biochemical; design: GUS activity (hydrolysis rate of MUG) / 1/v: unit not given here
EcGUS = EcGUS (Escherichia coli, UniProt P05804); assay: Isothermal titration calorimetry, EcGUS; format: binding; conditions: EcGUS
[3] = [Inhibitor 4] = 0.05 μM, [MUG] 0.08 mM
[4] = [Inhibitor 4] = 0.05 μM, [MUG] 0.125 mM
[5] = [Inhibitor 4] = 0.05 μM, [MUG] 0.25 mM
[6] = [Inhibitor 4] = 0.05 μM, [MUG] 0.5 mM
[7] = [Inhibitor 4] = 0.15 μM, [MUG] 0.08 mM
[8] = [Inhibitor 4] = 0.15 μM, [MUG] 0.125 mM
[9] = [Inhibitor 4] = 0.15 μM, [MUG] 0.25 mM
[10] = [Inhibitor 4] = 0.15 μM, [MUG] 0.5 mM
[11] = [Inhibitor 4] = 0.3 μM, [MUG] 0.08 mM
[12] = [Inhibitor 4] = 0.3 μM, [MUG] 0.125 mM
[13] = [Inhibitor 4] = 0.3 μM, [MUG] 0.25 mM
[14] = [Inhibitor 4] = 0.3 μM, [MUG] 0.5 mM
[15] = [Inhibitor 4] = 0.6 μM, [MUG] 0.08 mM
[16] = [Inhibitor 4] = 0.6 μM, [MUG] 0.125 mM
[17] = [Inhibitor 4] = 0.6 μM, [MUG] 0.25 mM
[18] = [Inhibitor 4] = 0.6 μM, [MUG] 0.5 mM
[19] = phosphate buffer (250 mM NaCl, 20 mM KH2PO4, 100 mM Na2HPO4, pH 8.0), 298 K

Sequence of EcGUS (P05804 whole entry): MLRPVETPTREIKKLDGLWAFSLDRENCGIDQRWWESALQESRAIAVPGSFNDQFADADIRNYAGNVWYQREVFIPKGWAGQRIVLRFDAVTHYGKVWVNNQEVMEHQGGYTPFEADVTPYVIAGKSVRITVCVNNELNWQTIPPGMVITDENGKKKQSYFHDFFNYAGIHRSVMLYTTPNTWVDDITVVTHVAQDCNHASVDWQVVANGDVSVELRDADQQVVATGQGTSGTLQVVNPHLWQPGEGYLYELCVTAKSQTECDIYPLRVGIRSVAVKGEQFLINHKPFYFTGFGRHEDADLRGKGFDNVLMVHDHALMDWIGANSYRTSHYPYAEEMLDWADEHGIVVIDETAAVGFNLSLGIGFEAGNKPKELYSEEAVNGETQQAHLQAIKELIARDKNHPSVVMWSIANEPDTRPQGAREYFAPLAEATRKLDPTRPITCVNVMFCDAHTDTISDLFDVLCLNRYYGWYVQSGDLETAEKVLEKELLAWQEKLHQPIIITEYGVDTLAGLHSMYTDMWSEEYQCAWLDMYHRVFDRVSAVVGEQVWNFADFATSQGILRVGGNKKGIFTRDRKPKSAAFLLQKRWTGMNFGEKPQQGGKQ
Sequence of BdGUS (Bifidobacterium dentium GUS) (D2Q7B1 1-668): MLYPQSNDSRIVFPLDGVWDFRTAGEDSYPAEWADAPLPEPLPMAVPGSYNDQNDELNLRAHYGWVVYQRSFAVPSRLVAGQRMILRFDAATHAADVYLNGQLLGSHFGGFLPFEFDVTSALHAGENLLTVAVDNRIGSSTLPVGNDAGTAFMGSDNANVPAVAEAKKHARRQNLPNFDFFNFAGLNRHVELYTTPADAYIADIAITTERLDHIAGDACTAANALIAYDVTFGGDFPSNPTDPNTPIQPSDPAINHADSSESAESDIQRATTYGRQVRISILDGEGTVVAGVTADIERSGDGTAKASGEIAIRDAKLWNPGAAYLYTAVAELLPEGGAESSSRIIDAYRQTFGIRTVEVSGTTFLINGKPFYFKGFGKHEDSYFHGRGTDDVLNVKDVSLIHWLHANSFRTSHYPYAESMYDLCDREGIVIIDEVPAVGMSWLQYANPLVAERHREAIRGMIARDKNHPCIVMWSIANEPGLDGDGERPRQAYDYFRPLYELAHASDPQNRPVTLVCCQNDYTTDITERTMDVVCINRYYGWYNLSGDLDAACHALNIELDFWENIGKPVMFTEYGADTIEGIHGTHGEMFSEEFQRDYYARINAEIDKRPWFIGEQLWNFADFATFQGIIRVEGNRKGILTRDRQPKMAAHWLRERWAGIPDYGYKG
Sequence of EcGUS (Escherichia coli GUS) (P05804 whole entry): as the sequence (P05804 whole entry) above

CCCCCCCCC[C@@H]1NC[C@@H](O)[C@H](O)[C@H]1C(=O)O [Inhibitor 4, C6-nonyl UIFG]
Ki (HsGUS (human GUS); HsGUS, 50 mM sodium acetate pH 4.5, 37 °C): 105000 nM
GUS activity (hydrolysis rate of MUG) (HsGUS (human GUS); [Inhibitor 4] =32 μM, [MUG] 0.1 mM): 862.058 and 811.68
GUS activity (hydrolysis rate of MUG) (HsGUS (human GUS); [Inhibitor 4] =32 μM, [MUG] 0.2 mM): 1454.23 and 1423.51
GUS activity (hydrolysis rate of MUG) (HsGUS (human GUS); [Inhibitor 4] =32 μM, [MUG] 0.4 mM): 2392.78 and 2276.09
GUS activity (hydrolysis rate of MUG) (HsGUS (human GUS); [Inhibitor 4] =32 μM, [MUG] 0.6 mM): 3009.56 and 2960.24
GUS activity (hydrolysis rate of MUG) (HsGUS (human GUS); [Inhibitor 4] =32 μM, [MUG] 0.8 mM): 3491.23 and 3336.67
GUS activity (hydrolysis rate of MUG) (HsGUS (human GUS); [Inhibitor 4] =32 μM, [MUG] 1.2 mM): 3870.44 and 4183.78
GUS activity (hydrolysis rate of MUG) (HsGUS (human GUS); [Inhibitor 4] =32 μM, [MUG] 1.6 mM): 4158.21 and 4615.97
GUS activity (hydrolysis rate of MUG) (HsGUS (human GUS); [Inhibitor 4] =32 μM, [MUG] 2 mM): 4779.14 and 4997.44
GUS activity (hydrolysis rate of MUG) (HsGUS (human GUS); [Inhibitor 4] =67 μM, [MUG] 0.1 mM): 714.053 and 717.679
GUS activity (hydrolysis rate of MUG) (HsGUS (human GUS); [Inhibitor 4] =67 μM, [MUG] 0.2 mM): 1251.96 and 1238.2
GUS activity (hydrolysis rate of MUG) (HsGUS (human GUS); [Inhibitor 4] =67 μM, [MUG] 0.4 mM): 2074.49 and 2003.18
GUS activity (hydrolysis rate of MUG) (HsGUS (human GUS); [Inhibitor 4] =67 μM, [MUG] 0.6 mM): 2680.12 and 2744.95
GUS activity (hydrolysis rate of MUG) (HsGUS (human GUS); [Inhibitor 4] =67 μM, [MUG] 0.8 mM): 3069.97 and 3096.82
GUS activity (hydrolysis rate of MUG) (HsGUS (human GUS); [Inhibitor 4] =67 μM, [MUG] 1.2 mM): 3696.42 and 3579.45
GUS activity (hydrolysis rate of MUG) (HsGUS (human GUS); [Inhibitor 4] =67 μM, [MUG] 1.6 mM): 4205.98 and 4285.65
GUS activity (hydrolysis rate of MUG) (HsGUS (human GUS); [Inhibitor 4] =67 μM, [MUG] 2 mM): 4703.3 and 4573.62
GUS activity (hydrolysis rate of MUG) (HsGUS (human GUS); [Inhibitor 4] =132 μM, [MUG] 0.1 mM): 517.307 and 519.469
GUS activity (hydrolysis rate of MUG) (HsGUS (human GUS); [Inhibitor 4] =132 μM, [MUG] 0.2 mM): 900.965 and 901.806
GUS activity (hydrolysis rate of MUG) (HsGUS (human GUS); [Inhibitor 4] =132 μM, [MUG] 0.4 mM): 1492.38 and 1537.56
GUS activity (hydrolysis rate of MUG) (HsGUS (human GUS); [Inhibitor 4] =132 μM, [MUG] 0.6 mM): 1976.12 and 2037.84
GUS activity (hydrolysis rate of MUG) (HsGUS (human GUS); [Inhibitor 4] =132 μM, [MUG] 0.8 mM): 2410.12 and 2475.98
GUS activity (hydrolysis rate of MUG) (HsGUS (human GUS); [Inhibitor 4] =132 μM, [MUG] 1.2 mM): 2927.86 and 2924.04
GUS activity (hydrolysis rate of MUG) (HsGUS (human GUS); [Inhibitor 4] =132 μM, [MUG] 1.6 mM): 3406.61 and 3409.83
GUS activity (hydrolysis rate of MUG) (HsGUS (human GUS); [Inhibitor 4] =132 μM, [MUG] 2 mM): 3959.47 and 3855.66
GUS activity (hydrolysis rate of MUG) (HsGUS (human GUS); [Inhibitor 4] =180 μM, [MUG] 0.1 mM): 375.667 and 389.113
GUS activity (hydrolysis rate of MUG) (HsGUS (human GUS); [Inhibitor 4] =180 μM, [MUG] 0.2 mM): 647.66 and 642.675
GUS activity (hydrolysis rate of MUG) (HsGUS (human GUS); [Inhibitor 4] =180 μM, [MUG] 0.4 mM): 1075.66 and 1190.92
GUS activity (hydrolysis rate of MUG) (HsGUS (human GUS); [Inhibitor 4] =180 μM, [MUG] 0.6 mM): 1564.63 and 1648.7
GUS activity (hydrolysis rate of MUG) (HsGUS (human GUS); [Inhibitor 4] =180 μM, [MUG] 0.8 mM): 1885.35 and 1934.39
GUS activity (hydrolysis rate of MUG) (HsGUS (human GUS); [Inhibitor 4] =180 μM, [MUG] 1.2 mM): 2412.5 and 2422.72
GUS activity (hydrolysis rate of MUG) (HsGUS (human GUS); [Inhibitor 4] =180 μM, [MUG] 1.6 mM): 2821.07 and 2863.56
GUS activity (hydrolysis rate of MUG) (HsGUS (human GUS); [Inhibitor 4] =180 μM, [MUG] 2 mM): 3316.38 and 3309.46
GUS activity (hydrolysis rate of MUG) (HsGUS (human GUS); [Inhibitor 4] =262 μM, [MUG] 0.1 mM): 312.332 and 326.592
GUS activity (hydrolysis rate of MUG) (HsGUS (human GUS); [Inhibitor 4] =262 μM, [MUG] 0.2 mM): 574.208 and 582.829
GUS activity (hydrolysis rate of MUG) (HsGUS (human GUS); [Inhibitor 4] =262 μM, [MUG] 0.4 mM): 1016.99 and 1025.39
GUS activity (hydrolysis rate of MUG) (HsGUS (human GUS); [Inhibitor 4] =262 μM, [MUG] 0.6 mM): 1397.45 and 1434.43
GUS activity (hydrolysis rate of MUG) (HsGUS (human GUS); [Inhibitor 4] =262 μM, [MUG] 0.8 mM): 1699 and 1721.63
GUS activity (hydrolysis rate of MUG) (HsGUS (human GUS); [Inhibitor 4] =262 μM, [MUG] 1.2 mM): 2236.3 and 2225.05
GUS activity (hydrolysis rate of MUG) (HsGUS (human GUS); [Inhibitor 4] =262 μM, [MUG] 1.6 mM): 2654.14 and 2619.41
GUS activity (hydrolysis rate of MUG) (HsGUS (human GUS); [Inhibitor 4] =262 μM, [MUG] 2 mM): 3001.13 and 3042.83
Ki [1]: 4.5 nM
Ki ([1]; 50 mM HEPES pH 7.5, 37 °C): 4.5 ± 0.7 nM
Ki ([2]; BdGUS): 440 nM
1/v [2, 3]: 0.1206 and 0.1178 and 0.1199
GUS activity (hydrolysis rate of MUG) [2, 3]: 1.851 and 1.896 and 1.862
1/v [2, 4]: 0.09548 and 0.09298 and 0.09392
GUS activity (hydrolysis rate of MUG) [2, 4]: 2.339 and 2.4016 and 2.377
1/v [2, 5]: 0.06502 and 0.06335 and 0.06665
GUS activity (hydrolysis rate of MUG) [2, 5]: 3.434 and 3.525 and 3.35
1/v [2, 6]: 0.04786 and 0.04662 and 0.0491
GUS activity (hydrolysis rate of MUG) [2, 6]: 4.665 and 4.79 and 4.548
1/v [2, 7]: 0.1451 and 0.1465 and 0.1466
GUS activity (hydrolysis rate of MUG) [2, 7]: 1.539 and 1.524 and 1.523
1/v [2, 8]: 0.1144 and 0.1135 and 0.113
GUS activity (hydrolysis rate of MUG) [2, 8]: 1.951 and 1.968 and 1.976
1/v [2, 9]: 0.07405 and 0.07448 and 0.0755
GUS activity (hydrolysis rate of MUG) [2, 9]: 3.015 and 2.998 and 2.957
1/v [2, 10]: 0.05196 and 0.05207 and 0.05497
GUS activity (hydrolysis rate of MUG) [2, 10]: 4.298 and 4.288 and 4.062
1/v [2, 11]: 0.2039 and 0.1961 and 0.2029
GUS activity (hydrolysis rate of MUG) [2, 11]: 1.095 and 1.138 and 1.1007
1/v [2, 12]: 0.1529 and 0.1514 and 0.1472
GUS activity (hydrolysis rate of MUG) [2, 12]: 1.4607 and 1.475 and 1.517
1/v [2, 13]: 0.09524 and 0.09338 and 0.09505
GUS activity (hydrolysis rate of MUG) [2, 13]: 2.344 and 2.391 and 2.349
1/v [2, 14]: 0.06409 and 0.06318 and 0.06381
GUS activity (hydrolysis rate of MUG) [2, 14]: 3.484 and 3.534 and 3.499
1/v [2, 15]: 0.286 and 0.2822 and 0.2849
GUS activity (hydrolysis rate of MUG) [2, 15]: 0.7809 and 0.7911 and 0.7837
1/v [2, 16]: 0.2142 and 0.2187 and 0.2123
GUS activity (hydrolysis rate of MUG) [2, 16]: 1.043 and 1.021 and 1.052
1/v [2, 17]: 0.1255 and 0.1264 and 0.1244
GUS activity (hydrolysis rate of MUG) [2, 17]: 1.779 and 1.767 and 1.7944
1/v [2, 18]: 0.08292 and 0.0812 and 0.08265
GUS activity (hydrolysis rate of MUG) [2, 18]: 2.693 and 2.75 and 2.702
ΔH (EcGUS; Tris buffer (250 mM NaCl, 20 mM Tris, pH 8.0), 298 K): close to zero
ΔΔH relative to 2 (ΔΔH2–3, ΔΔH2–4) (EcGUS; phosphate buffer): +0.99 kcal mol^−1
–TΔΔS relative to 2 (–TΔΔS2–3, –TΔΔS2–4) (EcGUS; phosphate buffer): -1.34 kcal/mol
Kd (EcGUS; [19]): 160 ± 40 nM
ΔG (EcGUS; [19]): –9.30 ± 0.13 kcal/mol
ΔH (EcGUS; [19]): –3.00 ± 0.02 kcal/mol
—TΔS (EcGUS; [19]): –6.31 ± 0.15 kcal/mol
